# Earlier results, collected in patent US20210169840A1, “COMPOSITION AND METHOD OF AN IRON SUPPLEMENT” (priority 2019, published 2021).
# Conditions: in vivo
substance,measurement,value
carbonyl iron,absorption,~70%
